Results taken from paper PMC7206119, “RIP1 inhibition blocks inflammatory diseases but not tumor growth or metastases” (Cell Death and Differentiation, 2019).

What was measured:
Test in all cases: biochemical
Set-up in all cases: DiscoverX kinase panel, active-site competition binding (KINOMEscan type), percent of control at one concentration
Conditions in all cases: competition binding, percent of control
ERK1 = biological target: T1, ERK1 (Homo sapiens, UniProt P27361)
T1 construct: gene MAPK3
T1 sequence (P27361 whole entry): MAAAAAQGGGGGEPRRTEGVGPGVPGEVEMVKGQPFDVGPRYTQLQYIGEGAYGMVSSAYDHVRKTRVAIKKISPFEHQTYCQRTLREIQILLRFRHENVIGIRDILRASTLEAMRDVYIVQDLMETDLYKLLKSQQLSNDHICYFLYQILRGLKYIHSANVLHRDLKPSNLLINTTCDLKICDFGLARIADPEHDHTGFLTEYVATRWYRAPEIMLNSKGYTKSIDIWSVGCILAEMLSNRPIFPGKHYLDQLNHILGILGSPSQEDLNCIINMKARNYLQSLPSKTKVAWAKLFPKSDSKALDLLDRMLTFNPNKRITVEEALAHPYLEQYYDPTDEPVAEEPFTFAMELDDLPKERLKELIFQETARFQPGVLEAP

PIK3CA(M1043I) = PIK3CA(M1043I) (Homo sapiens, UniProt P42336, M1043I)
CAMK1G = CAMK1G (Homo sapiens, UniProt Q96NX5)
LZK = biological target: T2, LZK (Homo sapiens, UniProt O43283)
T2 construct: gene MAP3K13

WNK4 = WNK4 (Homo sapiens, UniProt Q96J92)
SRC = SRC (Homo sapiens, UniProt P12931)
BMX = BMX (Homo sapiens, UniProt P51813)
[1] = biological target: T3, RSK4(Kin.Dom.1-N-terminal) (Homo sapiens, UniProt Q9UK32)
T3 construct: gene RPS6KA6; Kin.Dom.1-N-terminal
T3 sequence (Q9UK32 whole entry): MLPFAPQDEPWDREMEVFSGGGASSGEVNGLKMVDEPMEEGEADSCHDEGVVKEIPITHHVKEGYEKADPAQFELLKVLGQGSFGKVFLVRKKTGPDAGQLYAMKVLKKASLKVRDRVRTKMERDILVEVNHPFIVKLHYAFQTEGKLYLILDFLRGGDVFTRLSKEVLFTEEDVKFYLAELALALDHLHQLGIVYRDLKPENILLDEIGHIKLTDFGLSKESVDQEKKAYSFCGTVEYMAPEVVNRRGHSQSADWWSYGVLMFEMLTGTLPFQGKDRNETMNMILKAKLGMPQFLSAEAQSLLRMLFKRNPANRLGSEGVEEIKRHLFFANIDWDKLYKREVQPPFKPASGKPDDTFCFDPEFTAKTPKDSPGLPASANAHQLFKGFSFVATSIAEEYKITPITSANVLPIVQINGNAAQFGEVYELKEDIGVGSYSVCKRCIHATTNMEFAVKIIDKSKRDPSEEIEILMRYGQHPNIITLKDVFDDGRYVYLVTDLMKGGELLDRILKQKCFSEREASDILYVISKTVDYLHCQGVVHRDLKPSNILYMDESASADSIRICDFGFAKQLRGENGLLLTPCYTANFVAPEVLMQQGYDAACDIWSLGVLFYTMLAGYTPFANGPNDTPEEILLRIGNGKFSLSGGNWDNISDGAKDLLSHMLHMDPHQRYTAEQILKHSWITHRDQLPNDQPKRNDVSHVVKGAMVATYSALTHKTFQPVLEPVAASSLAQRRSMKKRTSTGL

PKAC-beta = biological target: T4, PKAC-beta (Homo sapiens, UniProt P22694)
T4 construct: gene PRKACB

IGF1R = IGF1R (Homo sapiens, UniProt P08069)
PIKFYVE = PIKFYVE (Homo sapiens, UniProt Q9Y2I7)
CDC2L2 = biological target: T5, CDC2L2 (Homo sapiens, UniProt Q9UQ88)
T5 construct: gene CDK11A

PKMYT1 = PKMYT1 (Homo sapiens, UniProt Q99640)
PKMYT1, sequence (Q99640 whole entry): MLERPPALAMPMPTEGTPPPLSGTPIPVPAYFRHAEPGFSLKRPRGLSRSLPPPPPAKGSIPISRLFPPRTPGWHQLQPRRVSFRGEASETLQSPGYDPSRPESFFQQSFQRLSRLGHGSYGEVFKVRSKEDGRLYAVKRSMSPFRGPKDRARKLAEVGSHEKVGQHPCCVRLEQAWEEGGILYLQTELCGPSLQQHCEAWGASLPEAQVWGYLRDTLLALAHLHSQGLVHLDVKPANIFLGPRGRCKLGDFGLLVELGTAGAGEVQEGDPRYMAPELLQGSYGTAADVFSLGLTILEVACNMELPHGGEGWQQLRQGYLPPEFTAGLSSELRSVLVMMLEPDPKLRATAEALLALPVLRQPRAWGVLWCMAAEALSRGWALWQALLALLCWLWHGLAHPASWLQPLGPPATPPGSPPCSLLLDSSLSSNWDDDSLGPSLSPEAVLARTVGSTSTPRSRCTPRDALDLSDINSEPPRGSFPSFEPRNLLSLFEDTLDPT

CDK4-cyclinD3 = biological target: T6, CDK4-cyclinD3 (Homo sapiens, UniProt P11802)
T6 construct: cyclinD3

MET(Y1235D) = MET(Y1235D) (Homo sapiens, UniProt P08581, Y1235D)
MET(Y1235D), sequence (P08581 whole entry Y1235D): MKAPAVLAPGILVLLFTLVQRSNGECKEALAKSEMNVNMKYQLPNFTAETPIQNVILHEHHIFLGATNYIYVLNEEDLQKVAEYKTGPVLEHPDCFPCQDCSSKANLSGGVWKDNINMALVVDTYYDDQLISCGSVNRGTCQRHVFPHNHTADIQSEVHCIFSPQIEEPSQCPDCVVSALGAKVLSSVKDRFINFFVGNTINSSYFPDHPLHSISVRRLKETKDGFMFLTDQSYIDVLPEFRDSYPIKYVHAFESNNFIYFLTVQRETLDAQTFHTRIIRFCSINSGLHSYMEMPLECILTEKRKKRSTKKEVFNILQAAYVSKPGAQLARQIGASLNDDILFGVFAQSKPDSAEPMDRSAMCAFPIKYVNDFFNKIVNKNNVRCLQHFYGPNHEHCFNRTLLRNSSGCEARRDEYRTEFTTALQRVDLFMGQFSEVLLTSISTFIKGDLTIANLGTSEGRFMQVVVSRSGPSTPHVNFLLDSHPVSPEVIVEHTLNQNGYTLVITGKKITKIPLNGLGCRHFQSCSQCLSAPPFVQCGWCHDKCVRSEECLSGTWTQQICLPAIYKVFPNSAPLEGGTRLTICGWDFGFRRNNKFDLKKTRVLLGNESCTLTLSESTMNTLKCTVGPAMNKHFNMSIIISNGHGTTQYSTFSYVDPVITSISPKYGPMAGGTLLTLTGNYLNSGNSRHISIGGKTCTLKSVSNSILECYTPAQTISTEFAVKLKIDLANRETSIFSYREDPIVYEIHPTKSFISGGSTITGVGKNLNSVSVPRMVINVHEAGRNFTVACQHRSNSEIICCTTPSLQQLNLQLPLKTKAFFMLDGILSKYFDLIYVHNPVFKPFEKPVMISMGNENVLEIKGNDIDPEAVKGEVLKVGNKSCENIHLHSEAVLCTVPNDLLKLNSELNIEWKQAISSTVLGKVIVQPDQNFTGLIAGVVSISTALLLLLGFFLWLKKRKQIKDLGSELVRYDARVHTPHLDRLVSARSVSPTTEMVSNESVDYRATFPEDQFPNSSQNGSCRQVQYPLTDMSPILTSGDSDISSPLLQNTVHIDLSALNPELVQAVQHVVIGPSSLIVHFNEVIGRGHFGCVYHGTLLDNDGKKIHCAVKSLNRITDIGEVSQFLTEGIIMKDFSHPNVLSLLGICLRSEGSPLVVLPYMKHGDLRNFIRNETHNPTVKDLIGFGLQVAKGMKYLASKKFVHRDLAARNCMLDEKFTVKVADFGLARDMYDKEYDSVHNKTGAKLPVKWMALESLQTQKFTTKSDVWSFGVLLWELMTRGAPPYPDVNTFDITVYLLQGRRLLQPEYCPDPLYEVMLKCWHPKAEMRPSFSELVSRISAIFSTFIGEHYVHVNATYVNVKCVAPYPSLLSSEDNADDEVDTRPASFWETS

MUSK = MUSK (Homo sapiens, UniProt O15146)
YSK4 = biological target: T7, YSK4 (Homo sapiens, UniProt Q56UN5)
T7 construct: gene MAP3K19

KIT(V559D) = KIT(V559D) (Homo sapiens, UniProt P10721, V559D)
KIT(V559D), sequence (P10721 whole entry V559D): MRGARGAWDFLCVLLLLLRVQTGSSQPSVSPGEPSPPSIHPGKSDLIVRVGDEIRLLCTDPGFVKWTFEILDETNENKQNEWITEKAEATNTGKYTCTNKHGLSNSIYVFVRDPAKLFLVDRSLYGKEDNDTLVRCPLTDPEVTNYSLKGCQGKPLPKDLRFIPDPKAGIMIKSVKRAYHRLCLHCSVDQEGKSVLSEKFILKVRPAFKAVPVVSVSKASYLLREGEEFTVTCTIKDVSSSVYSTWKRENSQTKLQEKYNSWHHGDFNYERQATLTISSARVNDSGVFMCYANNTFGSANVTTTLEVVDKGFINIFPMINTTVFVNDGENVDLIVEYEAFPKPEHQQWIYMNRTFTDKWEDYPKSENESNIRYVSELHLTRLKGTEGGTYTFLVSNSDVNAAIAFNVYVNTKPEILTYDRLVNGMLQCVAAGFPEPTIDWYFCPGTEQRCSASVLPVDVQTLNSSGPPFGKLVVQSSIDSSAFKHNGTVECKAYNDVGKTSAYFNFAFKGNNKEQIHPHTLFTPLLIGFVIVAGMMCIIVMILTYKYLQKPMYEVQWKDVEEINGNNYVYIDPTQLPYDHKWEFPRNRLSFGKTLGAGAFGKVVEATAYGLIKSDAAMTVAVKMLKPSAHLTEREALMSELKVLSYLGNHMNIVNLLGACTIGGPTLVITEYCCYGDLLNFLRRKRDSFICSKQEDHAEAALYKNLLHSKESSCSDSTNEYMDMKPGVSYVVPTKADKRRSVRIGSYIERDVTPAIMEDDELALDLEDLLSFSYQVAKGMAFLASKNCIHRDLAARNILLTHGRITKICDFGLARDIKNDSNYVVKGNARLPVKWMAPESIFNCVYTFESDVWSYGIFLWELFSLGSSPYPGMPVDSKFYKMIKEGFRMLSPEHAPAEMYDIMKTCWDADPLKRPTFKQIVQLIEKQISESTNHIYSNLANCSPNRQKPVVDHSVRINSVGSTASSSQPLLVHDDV

EPHA1 = EPHA1 (Homo sapiens, UniProt P21709)
EPHA1, sequence (P21709 whole entry): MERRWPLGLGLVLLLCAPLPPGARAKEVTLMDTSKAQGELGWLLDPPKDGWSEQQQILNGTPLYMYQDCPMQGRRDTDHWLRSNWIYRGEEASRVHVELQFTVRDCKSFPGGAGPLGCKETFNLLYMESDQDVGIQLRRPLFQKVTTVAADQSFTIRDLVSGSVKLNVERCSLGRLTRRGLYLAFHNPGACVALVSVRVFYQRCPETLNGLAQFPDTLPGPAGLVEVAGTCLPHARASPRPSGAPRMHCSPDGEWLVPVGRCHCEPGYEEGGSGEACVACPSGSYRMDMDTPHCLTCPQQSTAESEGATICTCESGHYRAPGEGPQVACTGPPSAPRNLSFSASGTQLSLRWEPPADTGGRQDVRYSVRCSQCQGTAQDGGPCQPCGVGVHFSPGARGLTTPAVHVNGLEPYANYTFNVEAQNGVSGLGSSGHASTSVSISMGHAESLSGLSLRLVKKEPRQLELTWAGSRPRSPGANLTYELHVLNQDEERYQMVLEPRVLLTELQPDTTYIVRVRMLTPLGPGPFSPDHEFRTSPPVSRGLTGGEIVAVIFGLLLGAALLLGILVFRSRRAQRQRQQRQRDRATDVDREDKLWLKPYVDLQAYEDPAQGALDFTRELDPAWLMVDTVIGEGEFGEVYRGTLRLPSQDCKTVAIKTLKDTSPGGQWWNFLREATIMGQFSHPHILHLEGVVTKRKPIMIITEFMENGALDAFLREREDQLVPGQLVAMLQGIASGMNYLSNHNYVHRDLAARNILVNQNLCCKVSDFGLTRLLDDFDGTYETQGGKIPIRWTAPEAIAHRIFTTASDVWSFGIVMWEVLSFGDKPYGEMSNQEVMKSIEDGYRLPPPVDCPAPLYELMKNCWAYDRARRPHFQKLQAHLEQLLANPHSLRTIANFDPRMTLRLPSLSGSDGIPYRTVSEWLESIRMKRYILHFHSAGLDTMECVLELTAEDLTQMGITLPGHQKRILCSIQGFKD

FLT3(N841I) = FLT3(N841I) (Homo sapiens, UniProt P36888, N841I)
SGK = biological target: T8, SGK (Homo sapiens, UniProt O00141)
T8 construct: gene SGK1

COc1cc2c(cn1)N(C)C(=O)[C@@H](NC(=O)c1nc3n(n1)[C@H](c1ccccc1)CC3)CC2 [GNE684, (S)-N-((S)-7-methoxy-1-methyl-2-oxo-2,3,4,5-tetrahydro-1H-pyrido[3,4-b]azepin-3-yl)-5-phenyl-6,7-dihydro-5H-pyrrolo[1,2-b][1,2,4]triazole-2-carboxamide]
remaining binding at 10 µM (ERK1): 96%
remaining binding at 10 µM (PIK3CA(M1043I)): 99%
remaining binding at 10 µM (CAMK1G): 100%
remaining binding at 10 µM (LZK): 98%
remaining binding at 10 µM (WNK4): 100%
remaining binding at 10 µM (SRC): 72%
remaining binding at 10 µM (BMX): 94%
remaining binding at 10 µM [1]: 100%
remaining binding at 10 µM (PKAC-beta): 72%
remaining binding at 10 µM (IGF1R): 87%
remaining binding at 10 µM (PIKFYVE): 100%
remaining binding at 10 µM (CDC2L2): 98%
remaining binding at 10 µM (PKMYT1): 99%
remaining binding at 10 µM (CDK4-cyclinD3): 97%
remaining binding at 10 µM (MET(Y1235D)): 82%
remaining binding at 10 µM (MUSK): 98%
remaining binding at 10 µM (YSK4): 92%
remaining binding at 10 µM (KIT(V559D)): 100%
remaining binding at 10 µM (EPHA1): 93%
remaining binding at 10 µM (FLT3(N841I)): 100%
remaining binding at 10 µM (SGK): 100%
